Experiments:
[1] = Bioavailability in immunocompromized children at […], po administered every 12 hrs; type: ADME, organism-based; conditions: human, in vivo
[2] = Bioavailability in children and young patient with malignancy; type: ADME, organism-based; conditions: human, in vivo

- bioavailability [1]: 48%
- bioavailability [2]: 60%
Structure (SMILES): Nc1nc2c(ncn2COCCO)c(=O)[nH]1 [ACYCLOVIR]
